# ChEMBL document CHEMBL3390836, “Mannich- and LedererManasse-based analogues of the natural product S-(+)-curcuphenol as cancer proliferation and migration inhibitors” (Medchemcomm, 2012)
# Columns and labels:
# Type in all cases: functional
# [1] = test system: LOX IMVI; test: Cytotoxicity against human LOXIMVI cells after 48 hrs by SRB assay
# [2] = Cytotoxicity against human NCI-ADR-RES cells assessed as cell growth at 10^-6 M after 48 hrs by SRB assay relative to control; conditions: read-out: Activity
# [3] = test system: NCI-H226; test: Cytotoxicity against human NCI-H226 cells after 48 hrs by SRB assay; conditions: NCI-H226, 48 h
# [4] = test system: T47D; test: Cytotoxicity against human T47D cells assessed as cell growth at 10^-7 M after 48 hrs by SRB assay relative to control; conditions: read-out: Activity
# [5] = test system: SF-268; test: Cytotoxicity against human SF268 cells assessed as cell growth at 10^-4 M after 48 hrs by SRB assay relative to control; conditions: SF-268, 48 h, read-out: Activity
# [6] = test system: SK-MEL-5; test: Cytotoxicity against human SK-MEL-5 cells assessed as cell growth at 10^-4 M after 48 hrs by SRB assay relative to control; conditions: SK-MEL-5, 48 h, read-out: Activity
# [7] = test system: MCF7; test: Cytotoxicity against human MCF7 cells assessed as cell growth at 10^-4 M after 48 hrs by SRB assay relative to control; conditions: MCF7, 48 h, read-out: Activity
# [8] = test system: A549; test: Cytotoxicity against human A549 cells after 48 hrs by SRB assay; conditions: A549, 48 h
# [9] = test system: MDA-MB-468; test: Cytotoxicity against human MDA-MB-468 cells assessed as cell growth at 10^-6 M after 48 hrs by SRB assay relative to control; conditions: MDA-MB-468, 48 h, read-out: Activity
# [10] = Cytotoxicity against human UACC62 cells after 48 hrs by SRB assay; conditions: UACC-62, 48 h
# [11] = Cytotoxicity against human UACC62 cells assessed as cell growth at 10^-6 M after 48 hrs by SRB assay relative to control; conditions: UACC-62, 48 h, read-out: Activity
# [12] = test system: HOP-62; test: Cytotoxicity against human HOP62 cells assessed as cell growth at 10^-8 M after 48 hrs by SRB assay relative to control; conditions: HOP-62, 48 h, read-out: Activity
# [13] = test system: SK-MEL-2; test: Cytotoxicity against human SK-MEL-2 cells after 48 hrs by SRB assay; conditions: SK-MEL-2, 48 h
# [14] = test system: U-251; test: Cytotoxicity against human U251 cells assessed as cell growth at 10^-7 M after 48 hrs by SRB assay relative to control; conditions: U-251, 48 h, read-out: Activity
# [15] = test system: 786-0; test: Cytotoxicity against human 786-0 cells assessed as cell growth at 10^-4 M after 48 hrs by SRB assay relative to control; conditions: 786-0, 48 h, read-out: Activity
# [16] = test system: CAKI-1; test: Cytotoxicity against human Caki1 cells assessed as cell growth at 10^-7 M after 48 hrs by SRB assay relative to control; conditions: CAKI-1, 48 h, read-out: Activity
# [17] = Cytotoxicity against human NCI-ADR-RES cells assessed as cell growth at 10^-8 M after 48 hrs by SRB assay relative to control; conditions: read-out: Activity
# [18] = test system: NCI-H322M; test: Cytotoxicity against human NCI-H322M cells assessed as cell growth at 10^-4 M after 48 hrs by SRB assay relative to control; conditions: read-out: Activity
# [19] = Cytotoxicity against human OVCAR8 cells assessed as cell growth at 10^-6 M after 48 hrs by SRB assay relative to control; conditions: OVCAR-8, 48 h, read-out: Activity
# [20] = test system: MDA-MB-468; test: Cytotoxicity against human MDA-MB-468 cells assessed as cell growth at 10^-8 M after 48 hrs by SRB assay relative to control; conditions: MDA-MB-468, 48 h, read-out: Activity
# [21] = test system: A498; test: Cytotoxicity against human A498 cells assessed as cell growth at 10^-8 M after 48 hrs by SRB assay relative to control; conditions: A498, 48 h, read-out: Activity
# [22] = test system: NCI-H460; test: Cytotoxicity against human NCI-H460 cells assessed as cell growth at 10^-8 M after 48 hrs by SRB assay relative to control; conditions: NCI-H460, 48 h, read-out: Activity
# [23] = test system: SF-539; test: Cytotoxicity against human SF539 cells after 48 hrs by SRB assay; conditions: SF-539, 48 h; for CC50: read-out: LC50 (the source's name)
# [24] = test system: SK-MEL-28; test: Cytotoxicity against human SK-MEL-28 cells assessed as cell growth at 10^-4 M after 48 hrs by SRB assay relative to control; conditions: SK-MEL-28, 48 h, read-out: Activity
# [25] = test system: TK-10; test: Cytotoxicity against human TK10 cells assessed as cell growth at 10^-4 M after 48 hrs by SRB assay relative to control; conditions: TK-10, 48 h, read-out: Activity
# [26] = test system: HL-60(TB); test: Cytotoxicity against human HL-60(TB) cells assessed as cell growth at 10^-4 M after 48 hrs by SRB assay relative to control; conditions: HL-60, 48 h, read-out: Activity
# [27] = test system: SN12C; test: Cytotoxicity against human SN12C cells assessed as cell growth at 10^-4 M after 48 hrs by SRB assay relative to control; conditions: read-out: Activity
# [28] = test system: MDA-MB-231; test: Cytotoxicity against human MDA-MB-231 cells assessed as cell growth at 10^-7 M after 48 hrs by SRB assay relative to control; conditions: MDA-MB-231, 48 h, read-out: Activity
# [29] = test system: COLO 205; test: Cytotoxicity against human COLO205 cells assessed as cell growth at 10^-6 M after 48 hrs by SRB assay relative to control; conditions: COLO 205, 48 h, read-out: Activity
# [30] = test system: SN12C; test: Cytotoxicity against human SN12C cells assessed as cell growth at 10^-8 M after 48 hrs by SRB assay relative to control; conditions: read-out: Activity
# [31] = Cytotoxicity against human PC3 cells after 48 hrs by SRB assay; conditions: PC-3, 48 h
# [32] = test system: ACHN; test: Cytotoxicity against human ACHN cells assessed as cell growth at 10^-4 M after 48 hrs by SRB assay relative to control; conditions: read-out: Activity
# [33] = Cytotoxicity against human Hs 578T cells assessed as cell growth at 10^-6 M after 48 hrs by SRB assay relative to control; conditions: read-out: Activity
# [34] = test system: SF-268; test: Cytotoxicity against human SF268 cells assessed as cell growth at 10^-6 M after 48 hrs by SRB assay relative to control; conditions: SF-268, 48 h, read-out: Activity
# [35] = test system: KM12; test: Cytotoxicity against human KM12 cells assessed as cell growth at 10^-6 M after 48 hrs by SRB assay relative to control; conditions: KM12, 48 h, read-out: Activity
# [36] = test system: Malme-3M; test: Cytotoxicity against human MALME-3M cells assessed as cell growth at 10^-4 M after 48 hrs by SRB assay relative to control; conditions: read-out: Activity
smiles,measurement,setting,value
CC(C)=CCC[C@H](C)c1ccc(C)c2c1OCN(CC1CCNCC1)C2,GI50,[1],5.87 µM
same,LC50 (concentration killing 50% of cells),[1],54.6 µM
same,TGI,[1],20.2 µM
same,growth at 1 µM,[2],102%
same,GI50,[3],17.7 µM
same,LC50,[3],64.5 µM
same,TGI,[3],33.8 µM
same,growth at 0.1 µM,[4],94%
same,growth at 100 µM,[5],-79%
same,growth at 100 µM,[6],-85%
same,growth at 100 µM,[7],-95%
same,GI50,[8],13 µM
same,LC50,[8],59.7 µM
same,TGI,[8],27.8 µM
same,growth at 1 µM,[9],99%
same,GI50,[10],15.5 µM
same,LC50 (concentration killing 50% of cells),[10],57.6 µM
same,TGI,[10],29.9 µM
same,growth at 1 µM,[11],101%
same,growth at 0.01 µM,[12],104%
same,GI50,[13],18.2 µM
same,LC50,[13],69.2 µM
same,TGI,[13],35.5 µM
same,growth at 0.1 µM,[14],101%
same,growth at 100 µM,[15],-87%
same,growth at 0.1 µM,[16],108%
same,growth at 0.01 µM,[17],104%
same,growth at 100 µM,[18],-68%
same,growth at 1 µM,[19],100%
same,growth at 0.01 µM,[20],94%
same,growth at 0.01 µM,[21],78%
same,growth at 0.01 µM,[22],108%
same,GI50,[23],13.7 µM
same,TGI,[23],27.5 µM
same,CC50,[23],55.3 µM
same,growth at 100 µM,[24],-98%
same,growth at 100 µM,[25],-87%
same,growth at 100 µM,[26],-73%
same,growth at 100 µM,[27],-88%
same,growth at 0.1 µM,[28],101%
same,growth at 1 µM,[29],101%
same,growth at 0.01 µM,[30],97%
same,GI50,[31],16.5 µM
same,LC50,[31],> 100 µM
same,TGI,[31],42.1 µM
same,growth at 100 µM,[32],-89%
same,growth at 1 µM,[33],104%
same,growth at 1 µM,[34],102%
same,growth at 1 µM,[35],103%
same,growth at 100 µM,[36],-76%
CC(C)=CCC[C@H](C)c1ccc(C)c(CNCC2CCNCC2)c1O,GI50,[1],3.85 µM
same,LC50 (concentration killing 50% of cells),[1],16.5 µM
same,TGI,[1],7.96 µM
same,growth at 1 µM,[2],95%
same,GI50,[3],10.4 µM
same,LC50,[3],> 25 µM
same,TGI,[3],> 25 µM
same,growth at 0.1 µM,[4],100%
same,growth at 100 µM,[5],14%
same,growth at 100 µM,[6],100%
same,growth at 100 µM,[7],-89%
same,GI50,[8],7.27 µM
same,LC50,[8],> 25 µM
same,TGI,[8],24.9 µM
same,growth at 1 µM,[9],90%
same,GI50,[10],4.24 µM
same,LC50 (concentration killing 50% of cells),[10],16.4 µM
same,TGI,[10],8.32 µM
same,growth at 1 µM,[11],86%
same,growth at 0.01 µM,[12],96%
same,GI50,[13],5.03 µM
same,LC50,[13],19.2 µM
same,TGI,[13],9.83 µM
same,growth at 0.1 µM,[14],93%
same,growth at 100 µM,[15],-47%
same,growth at 0.1 µM,[16],94%
same,growth at 0.01 µM,[17],100%
same,growth at 100 µM,[18],13%
same,growth at 1 µM,[19],100%
same,growth at 0.01 µM,[20],95%
same,growth at 0.01 µM,[21],80%
same,growth at 0.01 µM,[22],101%
same,GI50,[23],4.07 µM
same,TGI,[23],8.32 µM
same,CC50,[23],17 µM
same,growth at 100 µM,[24],-91%
same,growth at 100 µM,[25],-15%
same,growth at 100 µM,[26],-63%
same,growth at 100 µM,[27],39%
same,growth at 0.1 µM,[28],101%
same,growth at 1 µM,[29],107%
same,growth at 0.01 µM,[30],92%
same,GI50,[31],6.88 µM
same,LC50,[31],> 25 µM
same,TGI,[31],> 25 µM
same,growth at 100 µM,[32],-34%
same,growth at 1 µM,[33],97%
same,growth at 1 µM,[34],92%
same,growth at 1 µM,[35],93%
same,growth at 100 µM,[36],-62%
COc1ccc(CCN2COc3c([C@@H](C)CCC=C(C)C)ccc(C)c3C2)cc1OC,GI50,[1],1.77 µM
same,LC50 (concentration killing 50% of cells),[1],7.96 µM
same,TGI,[1],3.75 µM
same,growth at 1 µM,[2],96%
same,GI50,[3],8.64 µM
same,LC50,[3],49.1 µM
same,TGI,[3],21.6 µM
same,growth at 0.1 µM,[4],69%
same,growth at 100 µM,[5],-88%
same,growth at 100 µM,[6],-100%
same,growth at 100 µM,[7],-92%
same,GI50,[8],10.3 µM
same,LC50,[8],96.3 µM
same,TGI,[8],31.5 µM
same,growth at 1 µM,[9],62%
same,GI50,[10],3.48 µM
same,LC50 (concentration killing 50% of cells),[10],38.7 µM
same,TGI,[10],14.6 µM
same,growth at 1 µM,[11],86%
same,growth at 0.01 µM,[12],101%
same,GI50,[13],1.88 µM
same,LC50,[13],7.79 µM
same,TGI,[13],3.82 µM
same,growth at 0.1 µM,[14],88%
same,growth at 100 µM,[15],-100%
same,growth at 0.1 µM,[16],91%
same,growth at 0.01 µM,[17],98%
same,growth at 100 µM,[18],-69%
same,growth at 1 µM,[19],94%
same,growth at 0.01 µM,[20],75%
same,growth at 0.01 µM,[21],67%
same,growth at 0.01 µM,[22],101%
same,GI50,[23],4.47 µM
same,TGI,[23],15.9 µM
same,CC50,[23],39.9 µM
same,growth at 100 µM,[24],-95%
same,growth at 100 µM,[25],-88%
same,growth at 100 µM,[26],-5%
same,growth at 100 µM,[27],-100%
same,growth at 0.1 µM,[28],82%
same,growth at 1 µM,[29],100%
same,growth at 0.01 µM,[30],86%
same,GI50,[31],1.95 µM
same,LC50,[31],49.3 µM
same,TGI,[31],5.83 µM
same,growth at 100 µM,[32],-92%
same,growth at 1 µM,[33],93%
same,growth at 1 µM,[34],67%
same,growth at 1 µM,[35],93%
same,growth at 100 µM,[36],-88%
